Measurements as given in ChEMBL document CHEMBL1139247 (Bioorg Med Chem Lett, 2009).

Columns and labels:
[1] = Displacement of [3H]gabapentin from alpha2-delta subunit of voltage gated calcium channel in pig brain membrane; type: cell membranes, Sus scrofa
[2] = Displacement of [3H]leucine from Large neutral amino acids transporter system L in CHO cells; type: cell-based, Cricetulus griseus
[3] = Half life in rat plasma; type: ADME, organism-based
[4] = Volume of distribution at steady state in rat; type: ADME, organism-based; conditions: in vivo, read-out: Vdss
[5] = AUC in rat; type: ADME, organism-based; conditions: plasma
[6] = Drug level in Sprague-Dawley rat brain at 30 mg/kg, po after 2 hrs
[7] = Bioavailability in rat; type: ADME, organism-based; conditions: in vivo
Mus musculus [8] = experiment: Anxiolytic activity in DBA/2 mouse assessed as restoration of punished drinking behavior at 30 mg/kg, po relative to pregabalin; type: functional
[9] = Plasma concentration in Sprague-Dawley rat at 30 mg/kg, po after 2 hrs; type: ADME, organism-based; set-up: dose 30 mg/kg, route oral
[10] = Clearance in rat; type: ADME, organism-based; conditions: in vivo
Mus musculus [11] = experiment: Anticonvulsant activity in DBA/2 mouse assessed as protection from audiogenically-induced tonic seizures at 30 mg/kg, po after 1 hr; type: functional
Rattus norvegicus [12] = experiment: Reduction in renal clearance in Wistar rat at 3 mg/kg, iv after 5 mins in presence of cimetidine relative to control; type: ADME, organism-based; set-up: dose 3 mg/kg, route intravenous; conditions: in vivo
[13] = Unbound fraction in rat; type: ADME, organism-based; conditions: in vivo
Rattus norvegicus [14] = experiment: Reduction in renal clearance in Wistar rat at 3 mg/kg, iv after 5 mins in presence of probenecid relative to control; type: ADME, organism-based; set-up: dose 3 mg/kg, route intravenous; conditions: in vivo

With C[C@@H]1C[C@H](C)C[C@](CN)(Cc2noc(=O)[nH]2)C1 the IC50 [1] was > 10 µM.

In the case of Cn1nnnc1CC1(CN)CCCCC1, the IC50 [1] is reported as > 10 µM.

For CC(C)CC(CN)Cc1noc(=O)[nH]1 (racemic), the IC50 [1] was 1.5 µM.

In the case of NCC1(Cc2nnn[nH]2)CCCCC1, the IC50 [2] is reported as > 10000 µM and the IC50 [1] is reported as 0.1 µM.

With NCC1(Cc2noc(=O)[nH]2)CCCCCCC1 the IC50 [1] was 5.6 µM.

NCC1(Cc2noc(=O)[nH]2)CCCCCC1 gave an IC50 [1] of 0.158 µM.

In the case of Cn1c(CC2(CN)CCCCC2)noc1=O, the IC50 [1] is reported as > 10 µM.

In the case of C[C@@H]1CCC[C@@](CN)(Cc2noc(=O)[nH]2)C1, the IC50 [1] is reported as 0.084 µM.

CC(C)C[C@H](CN)CC(=O)O [PREGABALIN] gave a half-life [3] of 2.7 h, a Vd [4] of 0.79 L/kg and an AUC [5] of 14800 ng·h/mL. It also gave an IC50 [2] of 158 µM, a concentration at 2 h [6] of 7360 ng/mL and a bioavailability [7] of 83%. The Activity (Mus musculus [8]) was 100%, the concentration at 2 h [9] was 25600 ng/mL and the clearance [10] was 2.9 mL/min/kg. The Activity (Mus musculus [11]) was 100%.

For NCC1(Cc2noc(=O)[nH]2)CCCCC1, the “reduction in CL_renal” value (Rattus norvegicus [12]) was 35%, the half-life [3] was 1.6 h and the fraction unbound [13] was > 0.9. For the same compound, the Vd [4] was 1.25 L/kg, the “reduction in CL_renal” value (Rattus norvegicus [14]) was 57% and the AUC [5] was 2200 ng·h/mL. The IC50 [2] was > 10000 µM, the bioavailability [7] was 97% and the Activity (Mus musculus [8]) was 11%. For the same compound, the concentration at 2 h [9] was 15000 ng/mL, the clearance [10] was 20.3 mL/min/kg and the Activity (Mus musculus [11]) was 20%.

For C[C@@H]1C[C@H](C)C[C@@](CN)(Cc2noc(=O)[nH]2)C1, the IC50 [1] was 0.07 µM.

Compound NCC1(CC(=O)O)CCCCC1 [GABAPENTIN] has a half-life [3] of 1.5 h, an IC50 [2] of 30 µM and an IC50 [1] of 0.07 µM. It also gave an Activity (Mus musculus [8]) of 60% and an Activity (Mus musculus [11]) of 100%.

For NCC1(Cc2noc(=O)[nH]2)CCCC1, the IC50 [1] was 1.14 µM.
